Experimental data reported in patent publication US8338597B2, “Pyridones useful as inhibitors of kinases” (Vertex Pharmaceuticals Incorporated, priority 2004, dated 2012).

Assays:
Type in all cases: biochemical
Itk [1] = target: T1, Itk (Homo sapiens, UniProt Q08881); test: ITK inhibition assay, radioactive-phosphate incorporation; conditions: [γ-33P]ATP, SAM68 peptide, 25° C.
T1 sequence (Q08881 1-620): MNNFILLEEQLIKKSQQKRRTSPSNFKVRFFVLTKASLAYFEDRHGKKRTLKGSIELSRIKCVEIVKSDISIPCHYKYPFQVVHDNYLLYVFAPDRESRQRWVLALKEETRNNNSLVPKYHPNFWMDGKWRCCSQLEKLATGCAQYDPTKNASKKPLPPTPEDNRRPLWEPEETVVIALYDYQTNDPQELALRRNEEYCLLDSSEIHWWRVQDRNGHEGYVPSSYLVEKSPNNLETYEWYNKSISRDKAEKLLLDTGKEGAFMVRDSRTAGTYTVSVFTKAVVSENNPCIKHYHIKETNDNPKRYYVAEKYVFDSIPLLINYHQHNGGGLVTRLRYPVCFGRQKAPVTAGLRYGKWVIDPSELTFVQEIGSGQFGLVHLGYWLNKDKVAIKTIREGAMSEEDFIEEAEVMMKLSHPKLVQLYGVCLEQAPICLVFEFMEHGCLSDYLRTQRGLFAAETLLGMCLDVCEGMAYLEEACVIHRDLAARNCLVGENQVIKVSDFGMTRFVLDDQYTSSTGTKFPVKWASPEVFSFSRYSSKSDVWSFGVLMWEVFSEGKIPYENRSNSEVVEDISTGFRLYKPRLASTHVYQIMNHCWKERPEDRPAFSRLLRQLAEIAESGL
Description: Assays were carried out in a mixture of 20 mM MOPS (pH 7.0), 10 mM MgCl2, 0.1% BSA and 1 mM DTT. […] Assays were carried out at 25° C. in the presence of 50 nM Itk. An assay stock buffer solution was prepared containing all of the reagents listed above, with the exception of ATP and the test compound of interest.
The reaction was stopped after 10 minutes by the addition of […] 0.2M phosphoric acid+0.01% TWEEN 20. A multiscreen phosphocellulose filter 96-well plate (Millipore, Cat no. MAPHN0B50) was pretreated with 100 μL 0.2M phosphoric acid+0.01% TWEEN 20 prior to the addition of […] of the stopped assay mixture. The plate was washed with 4×200 μL 0.2M phosphoric acid+0.01% TWEEN 20.
Ki(app) data were calculated from non-linear regression analysis of the initial rate data using the Prism software package (GraphPad Prism version 3.0cx for Macintosh, GraphPad Software, San Diego Calif., USA).

Itk [2] = target: T1, Itk; test: ITK inhibition assay (UV), standard coupled enzyme assay; conditions: 100 μM ATP, 100 nM Itk, 25° C.
Description: Assays were carried out in a mixture of 20 mM MOPS (pH 7.0), 10 mM MgCl2, 0.1% BSA, 1 mM DTT, 2.5 mM phosphoenolpyruvate, 300 μM NADH, 30 μg/ml pyruvate kinase and 10 μg/ml lactate dehydrogenase. […]
An assay stock buffer solution was prepared containing all of the reagents listed above, with the exception of ATP and the test compound of interest. […] The plate was preincubated for 10 minutes at 25° C. and the reaction initiated by addition of 5 μl of ATP. Initial reaction rates were determined with a Molecular Devices SpectraMax Plus plate reader over a 10 minute time course. IC50 and Ki data were calculated from non-linear regression analysis using the Prism software package (GraphPad Prism version 3.0cx for Macintosh, GraphPad Software, San Diego Calif., USA).

Rlk = target: T2, Rlk (Homo sapiens, UniProt P42681); test: RLK inhibition assay, standard coupled enzyme assay; conditions: 100 μM ATP, 40 nM Rlk, 30° C.
T2 sequence (P42681 1-527): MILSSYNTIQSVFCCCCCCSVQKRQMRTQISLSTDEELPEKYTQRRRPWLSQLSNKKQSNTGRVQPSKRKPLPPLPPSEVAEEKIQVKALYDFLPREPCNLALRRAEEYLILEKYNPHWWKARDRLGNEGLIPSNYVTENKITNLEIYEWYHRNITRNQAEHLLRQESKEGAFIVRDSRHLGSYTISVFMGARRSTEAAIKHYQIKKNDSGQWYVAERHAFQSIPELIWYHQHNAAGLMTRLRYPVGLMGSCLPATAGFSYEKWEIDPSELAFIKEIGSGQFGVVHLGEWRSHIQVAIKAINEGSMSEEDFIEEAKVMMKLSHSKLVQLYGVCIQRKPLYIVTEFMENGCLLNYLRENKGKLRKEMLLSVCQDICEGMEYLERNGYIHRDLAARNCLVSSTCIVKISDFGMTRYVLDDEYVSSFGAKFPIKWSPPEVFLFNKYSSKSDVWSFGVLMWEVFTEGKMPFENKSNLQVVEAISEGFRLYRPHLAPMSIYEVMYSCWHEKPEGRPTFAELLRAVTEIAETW
Description: Compounds were screened for their ability to inhibit Rlk using a standard coupled enzyme assay (Fox et al., Protein Sci., (1998) 7, 2249). Assays were carried out in a mixture of 20 mM MOPS (pH 7.0), 10 mM MgCl2, 0.1% BSA and 1 mM DTT. Final substrate concentrations in the assay were 100 μM ATP (Sigma Chemicals) and 10 μM peptide (Poly Glu:Tyr 4:1). Assays were carried out at 30° C. and in the presence of 40 nM Rlk. Final concentrations of the components of the coupled enzyme system were 2.5 mM phosphoenolpyruvate, 300 μM NADH, 30 μg/ml pyruvate kinase and 10 μg/ml lactate dehydrogenase.
An assay stock buffer solution was prepared containing all of the reagents listed above, with the exception of ATP and the test compound of interest. 60 μl of the stock solution was placed in a 96 well plate followed by addition of […] of DMSO stock containing serial dilutions of the test compound (typically starting from a final concentration of 7.5 μM). The plate was preincubated for 10 minutes at 30° C. and the reaction initiated by addition of 5 μl of ATP. Initial reaction rates were determined with a Molecular Devices SpectraMax Plus plate reader over a 10 minute time course. IC50 and Ki data were calculated from non-linear regression analysis using the Prism software package (GraphPad Prism version 3.0cx for Macintosh, GraphPad Software, San Diego Calif., USA).

Row | Ki (Itk [1]) | Ki (Itk [2]) | Ki (Rlk) | SMILES
1 | 0.1 to 1 µM | 0.1 to 1 µM | > 1 µM | O=C(Nc1cc(-c2ccncc2)c[nH]c1=O)c1ccc(CCl)cc1 [Compound I-5]
2 | 0.1 to 1 µM | 0.1 to 1 µM | > 1 µM | CC(C)(C)c1ccc(C(=O)Nc2cc(-c3ccncc3)c[nH]c2=O)cc1 [Compound I-11, 4-tert-Butyl-N-(6-oxo-1,6-dihydro-[3,4]bipyridinyl-5-yl)-benzamide]
3 | 0.1 to 1 µM | 0.1 to 1 µM | – | O=C(Nc1cc(-c2ccncc2)c[nH]c1=O)c1ccc(N2CCCC2)cc1 [Compound I-69]
4 | – | < 0.1 µM | – | CN1CCN(c2ccc(C(=O)Nc3cc(-c4ccncc4)c[nH]c3=O)cc2)CC1 [Compound I-70]
5 | – | < 0.1 µM | – | O=C(Nc1cc(-c2ccncc2)c[nH]c1=O)c1ccc(N2CCCCCC2)cc1 [Compound I-76]
6 | – | < 0.1 µM | – | O=C(Nc1cc(-c2ccncc2)c[nH]c1=O)c1ccc(N2CCCNCC2)cc1 [Compound I-78]
7 | – | < 0.1 µM | – | CN(C)CCCNc1ccc(C(=O)Nc2cc(-c3ccncc3)c[nH]c2=O)cc1 [Compound I-79]
8 | – | < 0.1 µM | – | NCCCNc1ccc(C(=O)Nc2cc(-c3ccncc3)c[nH]c2=O)cc1 [Compound I-80]
9 | 0.1 to 1 µM | 0.1 to 1 µM | – | O=C(Nc1cc(-c2ccncc2)c[nH]c1=O)c1ccc(CN2CCOCC2)cc1 [Compound I-82]
10 | 0.1 to 1 µM | 0.1 to 1 µM | – | O=C(Nc1cc(-c2ccncc2)c[nH]c1=O)c1ccc(CN2CCNCC2)cc1 [Compound I-83]
11 | 0.1 to 1 µM | 0.1 to 1 µM | – | CNCCN(C)Cc1ccc(C(=O)Nc2cc(-c3ccncc3)c[nH]c2=O)cc1 [Compound I-84]
12 | 0.1 to 1 µM | 0.1 to 1 µM | – | CSc1nccc(-c2c[nH]c(=O)c(NC(=O)c3ccc(C(C)(C)C)cc3)c2)n1 [II-4, 4-tert-Butyl-N-[5-(2-methylsulfanyl-pyrimidin-4-yl)-2-oxo-1,2-dihydro-pyridin-3-yl]-benzamide]
13 | 0.1 to 1 µM | – | > 1 µM | O=C1C=C(c2c[nH]c(=O)c(NC(=O)c3ccc(N4CCCCC4)cc3)c2)CCC1 [II-85]
14 | 0.1 to 1 µM | – | > 1 µM | O=C1C=C(c2c[nH]c(=O)c(NC(=O)c3ccc(N4CCCCC4)cc3)c2)CC1 [II-87]
15 | < 0.1 µM | – | > 1 µM | CNc1cncc(-c2c[nH]c(=O)c(NC(=O)c3ccc(OCCC4CCNCC4)cc3)c2)n1 [II-143]
16 | < 0.1 µM | – | > 1 µM | CNc1cncc(-c2c[nH]c(=O)c(NC(=O)c3ccc(N4CCN(CCO)CC4)cc3)c2)n1 [II-148]
17 | < 0.1 µM | – | > 1 µM | CNc1cc(C#N)cc(-c2c[nH]c(=O)c(NC(=O)c3ccc(N4CCNCC4)cc3)c2)n1 [II-160]
18 | < 0.1 µM | – | > 1 µM | CNc1cncc(-c2c[nH]c(=O)c(NC(=O)c3ccc(NC4CCNCC4)cc3)c2)n1 [II-163]
19 | < 0.1 µM | – | > 1 µM | CNc1cncc(-c2c[nH]c(=O)c(NC(=O)c3ccc(N(C)CCN(C)C)cc3)c2)n1 [II-164]
20 | < 0.1 µM | – | > 1 µM | CNc1cncc(-c2c[nH]c(=O)c(NC(=O)c3ccc(N4CC[C@@H](N(C)C)C4)cc3)c2)n1 [II-166]
21 | < 0.1 µM | – | > 1 µM | CNc1cncc(-c2c[nH]c(=O)c(NC(=O)c3ccc(NCCCn4ccnc4)cc3)c2)n1 [II-168]
22 | < 0.1 µM | – | > 1 µM | CNc1cc(F)cc(-c2c[nH]c(=O)c(NC(=O)c3ccc(N4CCC[C@H]4CN4CCCC4)cc3)c2)n1 [II-171]
23 | < 0.1 µM | – | > 1 µM | CNc1cncc(-c2c[nH]c(=O)c(NC(=O)c3ccc(N4CCC[C@H]4CN4CCCC4)cc3)c2)c1 [II-178]
24 | < 0.1 µM | – | > 1 µM | CNc1cc(C#N)cc(-c2c[nH]c(=O)c(NC(=O)c3ccc(N4CCC[C@H]4CN4CCCC4)cc3)c2)c1 [II-179]
25 | 0.1 to 1 µM | – | > 1 µM | CC(C)c1ccc(NC(=O)c2cc(-c3ccncc3)c[nH]c2=O)cc1 [III-4]
26 | 0.1 to 1 µM | – | > 1 µM | CC(C)(C)c1ccc(NC(=O)c2cc(-c3ccncc3)c[nH]c2=O)cc1 [III-5]
